Drawing on ChEMBL document CHEMBL1159112, “Synthesis, biological evaluation, and molecular modeling of berberine derivatives as potent acetylcholinesterase inhibitors” (Bioorg Med Chem, 2010), this text covers IC50, Ratio IC50 and Ki for 15 compounds.

The target in assay [1] is T1, Acetylcholinesterase (Electrophorus electricus, UniProt O42275). In words: Inhibition of electric eel AChE by modified Ellman method. In general terms: In Ellman's method for cholinesterases, released thiocholine reacts with DTNB.
T1 sequence (O42275 whole entry): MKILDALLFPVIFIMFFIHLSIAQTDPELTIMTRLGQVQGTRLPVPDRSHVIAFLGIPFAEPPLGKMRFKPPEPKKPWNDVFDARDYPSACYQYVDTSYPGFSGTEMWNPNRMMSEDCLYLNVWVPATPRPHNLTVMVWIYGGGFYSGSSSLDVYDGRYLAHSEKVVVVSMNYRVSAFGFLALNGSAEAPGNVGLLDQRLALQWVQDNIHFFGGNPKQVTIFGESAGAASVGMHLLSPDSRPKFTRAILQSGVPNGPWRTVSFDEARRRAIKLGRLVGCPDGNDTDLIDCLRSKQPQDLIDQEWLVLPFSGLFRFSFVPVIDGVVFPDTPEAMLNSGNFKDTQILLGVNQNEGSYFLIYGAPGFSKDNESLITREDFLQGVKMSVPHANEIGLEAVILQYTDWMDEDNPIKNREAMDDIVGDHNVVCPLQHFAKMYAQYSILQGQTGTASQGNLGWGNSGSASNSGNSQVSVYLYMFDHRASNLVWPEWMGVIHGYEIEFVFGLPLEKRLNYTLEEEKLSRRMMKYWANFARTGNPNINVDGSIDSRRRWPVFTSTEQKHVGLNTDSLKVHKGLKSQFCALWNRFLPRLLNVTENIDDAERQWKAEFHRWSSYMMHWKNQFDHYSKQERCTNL
Assay [2] can be described thus: Selectivity for electric eel AChE over horse serum BChE.
A further assay addresses Cholinesterase (Equus caballus, UniProt P81908).
Assay [3] concerns the target T1, Acetylcholinesterase. In words: Inhibition of electric eel AChE by enzyme kinetics assay.

By IC50 is commonly meant the midpoint of a concentration-inhibition curve. The low end stands for higher potency, the high end for lower potency. The term Ki denotes the equilibrium dissociation constant of an inhibitor or competing ligand from its target.

Structures are written as SMILES.

Cholinesterase, sequence (P81908 whole entry): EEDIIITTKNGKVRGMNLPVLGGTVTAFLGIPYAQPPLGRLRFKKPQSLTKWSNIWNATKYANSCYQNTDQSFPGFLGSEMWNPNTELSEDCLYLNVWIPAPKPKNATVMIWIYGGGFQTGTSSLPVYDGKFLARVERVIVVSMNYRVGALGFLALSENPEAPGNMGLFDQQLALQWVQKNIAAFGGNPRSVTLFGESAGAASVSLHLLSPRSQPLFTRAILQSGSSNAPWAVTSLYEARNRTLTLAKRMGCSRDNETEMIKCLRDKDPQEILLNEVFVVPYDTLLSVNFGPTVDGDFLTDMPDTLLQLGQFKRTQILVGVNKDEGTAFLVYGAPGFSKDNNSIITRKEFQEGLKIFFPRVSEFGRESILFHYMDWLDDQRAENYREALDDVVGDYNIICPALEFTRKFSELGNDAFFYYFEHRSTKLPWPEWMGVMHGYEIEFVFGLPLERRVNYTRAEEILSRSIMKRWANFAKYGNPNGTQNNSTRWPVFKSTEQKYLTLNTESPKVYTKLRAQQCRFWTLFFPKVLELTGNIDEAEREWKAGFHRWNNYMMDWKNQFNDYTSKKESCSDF

Consider `COc1ccc2cc3[n+](cc2c1OCCCCCCOn1nnc2ccccc21)CCc1cc2c(cc1-3)OCO2`, for which the IC50 against Acetylcholinesterase [1] was 515 nM. Also, the Ratio IC50 in assay [2] was 5.5. `COc1ccc2cc3[n+](cc2c1OCCOc1ccccc1)CCc1cc2c(cc1-3)OCO2` returned an IC50 on Acetylcholinesterase [1] of 224 nM. As to `COc1ccc2cc3[n+](cc2c1OCCCCCCOc1cccc2[nH]c4ccccc4c12)CCc1cc2c(cc1-3)OCO2`, on Acetylcholinesterase [1], the IC50 is 2100 nM. For the compound `COc1ccc2cc3[n+](cc2c1OCCCCCOn1nnc2ccccc21)CCc1cc2c(cc1-3)OCO2`, the IC50 was found to be 2490 nM on Cholinesterase and 280 nM against Acetylcholinesterase [1]. Moreover, the Ratio IC50 in assay [2] worked out at 8.9.

For the compound `COc1ccc2cc3[n+](cc2c1OCCCOc1ccccc1)CCc1cc2c(cc1-3)OCO2`, at Acetylcholinesterase [1], the IC50 was found to be 123 nM.

For the compound `COc1ccc2cc3[n+](cc2c1OC)CCc1cc2c(cc1-3)OCO2` [BERBERINE CHLORIDE], the Ki at Acetylcholinesterase [3] came out at 289 nM. Also, half-maximal inhibition against Acetylcholinesterase [1] (IC50) required 374 nM. The compound `COc1ccc2cc3[n+](cc2c1OCCCCCOc1cccc2[nH]c4ccccc4c12)CCc1cc2c(cc1-3)OCO2` displayed an IC50 on Acetylcholinesterase [1] of 1680 nM. For the compound `COc1ccc2cc3[n+](cc2c1OCCCCOn1nnc2ccccc21)CCc1cc2c(cc1-3)OCO2`, the IC50 against Cholinesterase came out at 4170 nM; at Acetylcholinesterase [1], 224 nM. The Ratio IC50 in assay [2] was found to be 18.6. Compound `COc1ccc2cc3[n+](cc2c1OCCCOc1cccc2[nH]c4ccccc4c12)CCc1cc2c(cc1-3)OCO2` returned an IC50 on Acetylcholinesterase [1] of 1120 nM. Still for that read-out and setting: in the case of `COc1ccc2cc3[n+](cc2c1OCCOn1nnc2ccccc21)CCc1cc2c(cc1-3)OCO2` it was 375 nM; in that of `COc1ccc2cc3[n+](cc2c1OCCCCCCOc1ccccc1)CCc1cc2c(cc1-3)OCO2`, 520 nM; in that of `COc1ccc2cc3[n+](cc2c1OCCOc1cccc2[nH]c4ccccc4c12)CCc1cc2c(cc1-3)OCO2`, 1230 nM.

For `COc1ccc2cc3[n+](cc2c1OCCCOn1nnc2ccccc21)CCc1cc2c(cc1-3)OCO2`, the figures for the IC50 against Cholinesterase and against Acetylcholinesterase [1] were 2890 nM and 359 nM, respectively. Also, the Ratio IC50 in assay [2] was 8. Regarding `COc1ccc2cc3[n+](cc2c1OCCCCCOc1ccccc1)CCc1cc2c(cc1-3)OCO2`, the IC50 against Acetylcholinesterase [1] stood at 398 nM. On Acetylcholinesterase [1], `COc1ccc2cc3[n+](cc2c1OCCCCOc1cccc2[nH]c4ccccc4c12)CCc1cc2c(cc1-3)OCO2` displayed an IC50 of 856 nM.
